Where a SMILES comes first, the peptide text is derived from it. [ ]: non-standard residue; d: D form. The star is where a group is joined. X2 = CCCCCCN1C(=O)CC(*)C1=O; Decanoyl = CCCCCCCCCC(=O)*; Ac6c = NC1(C(=O)O)CCCCC1; Orn = NCCC[C@H](N)C(=O)O; Hexanoyl = CCCCCC(=O)*

Consider six molecules from patent publication US8450266B2 (Ipsen Pharma S.A.S., priority 2008, dated 2013).

Data set [1] in a line: Human plasma half-life assay (LC-MS). The class given is in vitro ADME. Conditions: incubated at 37° C., read-out: Human Plasma T½ (converted). As for the experimental part:
(§1) B. Human and Rat Plasma Half-Life Assay
(§2) 50 μl, was removed at various times, like at 0, 1, 2, 3, 4, 8, 24, 32, 48, 56, 72 hours, mixed with 5 μL formic acid and 150 μL acetonitrile in a microcentrifuge tube, vertexed, and centrifuged for 10 minutes at 10K rpm. The supernatant was transferred to an injection vial and analyzed by LC-MS. The LC-MS system consisted of an API4000 mass spectrometer with an ESI probe. Positive ion mode and full scan detection were used. HPLC separation was carried out on a Luna 3μ C8 (2), 2×30 mm column with a gradient from 90% A to 90% B in 10 minutes at a flow rate of 0.3 ml/min. Buffer A was 1% formic acid in water and buffer B was 1% formic acid acetonitrile.

Data set [2] in a line: Rat plasma half-life assay (LC-MS). In kind it is in vitro ADME. The settings on record: incubated at 37° C., read-out: Rat Plasma T½ (converted). On the procedure: as §1, §2

Regarding `CCCCCC(=O)NCCC[C@H](NC(=O)[C@H](CCCCN)NC(=O)[C@H](CCC(N)=O)NC(=O)[C@H](C)NC(=O)[C@H](CC(C)C)NC(=O)[C@H](CC(C)C)NC(=O)[C@H](Cc1c[nH]c2ccccc12)NC(=O)[C@H](CC(N)=O)NC(=O)[C@@H](NC(=O)[C@H](Cc1ccccc1)NC(=O)[C@H](CC(=O)O)NC(=O)[C@H](CCC(N)=O)NC(=O)[C@H](CCC(N)=O)NC(=O)[C@H](Cc1c[nH]cn1)NC(=O)[C@@H](NC(=O)[C@H](CCCCN)NC(=O)[C@H](CC(=O)O)NC(=O)[C@H](CCSC)NC(=O)[C@H](C)NC(=O)[C@@H](NC(=O)[C@H](CO)NC(=O)[C@H](Cc1ccc(O)cc1)NC(=O)[C@H](CC(=O)O)NC(=O)[C@H](CO)NC(=O)C1(N)CCCCC1)[C@@H](C)CC)[C@@H](C)CC)C(C)C)C(=O)N[C@@H](CCCCN)C(=O)N[C@@H](CCCCN)C(=O)N[C@@H](CC(N)=O)C(=O)N[C@@H](CC(=O)O)C(=O)N[C@@H](Cc1c[nH]c2ccccc12)C(=O)N[C@@H](CCCCN)C(=O)N[C@@H](Cc1c[nH]cn1)C(=O)N[C@@H](CC(N)=O)C(=O)N[C@H](C(=O)N[C@H](C(=O)N[C@@H](CCC(N)=O)C(=O)O)[C@@H](C)O)[C@@H](C)CC` [Example 17, [A6c^7, Orn^31(N-C(O)-(CH2)4-CH3)]hGIP(7-42)-OH] (H-[Ac6c]SDYSIAMDKIHQQDFVNWLLAQK[Orn](Hexanoyl)KKNDWKHNITQ-OH), the half-life at 0.1 mg/ml was over 50 h in data set [1] and 9.4 h in data set [2].

Consider `CCCCCC(=O)NCCC[C@H](NC(=O)[C@H](CCCCN)NC(=O)[C@H](CCC(N)=O)NC(=O)[C@H](C)NC(=O)[C@H](CC(C)C)NC(=O)[C@H](CC(C)C)NC(=O)[C@H](Cc1c[nH]c2ccccc12)NC(=O)[C@H](CC(N)=O)NC(=O)[C@@H](NC(=O)[C@H](Cc1ccccc1)NC(=O)[C@H](CC(=O)O)NC(=O)[C@H](CCC(N)=O)NC(=O)[C@H](CCC(N)=O)NC(=O)[C@H](Cc1c[nH]cn1)NC(=O)[C@@H](NC(=O)[C@H](CCCCN)NC(=O)[C@H](CC(=O)O)NC(=O)[C@H](CCSC)NC(=O)[C@H](C)NC(=O)[C@@H](NC(=O)[C@H](CO)NC(=O)[C@H](Cc1ccc(O)cc1)NC(=O)[C@H](CC(=O)O)NC(=O)[C@H](CO)NC(=O)C1(NC(=O)CCCCC)CCCCC1)[C@@H](C)CC)[C@@H](C)CC)C(C)C)C(=O)N[C@@H](CCCCN)C(=O)N[C@@H](CCCCN)C(=O)N[C@@H](CC(N)=O)C(=O)N[C@@H](CC(=O)O)C(=O)N[C@@H](Cc1c[nH]c2ccccc12)C(=O)N[C@@H](CCCCN)C(=O)N[C@@H](Cc1c[nH]cn1)C(=O)N[C@@H](CC(N)=O)C(=O)N[C@H](C(=O)N[C@H](C(=O)N[C@@H](CCC(N)=O)C(=O)O)[C@@H](C)O)[C@@H](C)CC` [Example 18, [CH3-(CH2)4-C(O)-A6c^7, Orn^31(N-C(O)-(CH2)4-CH3)]hGIP(7-42)-OH] (Hexanoyl-[Ac6c]SDYSIAMDKIHQQDFVNWLLAQK[Orn](Hexanoyl)KKNDWKHNITQ-OH), for which the half-life at 0.1 mg/ml was 13.8 h in data set [1] and 6.3 h in data set [2].

For `CCCCCCCCCC(=O)NCCC[C@H](NC(=O)[C@H](CCCCN)NC(=O)[C@H](CCCCN)NC(=O)CNC(=O)[C@H](CCCCN)NC(=O)[C@H](CCC(N)=O)NC(=O)[C@H](C)NC(=O)[C@H](CC(C)C)NC(=O)[C@H](CC(C)C)NC(=O)[C@H](Cc1c[nH]c2ccccc12)NC(=O)[C@H](CC(N)=O)NC(=O)[C@@H](NC(=O)[C@H](Cc1ccccc1)NC(=O)[C@H](CC(=O)O)NC(=O)[C@H](CCC(N)=O)NC(=O)[C@H](CCC(N)=O)NC(=O)[C@H](Cc1c[nH]cn1)NC(=O)[C@@H](NC(=O)[C@H](CCCCN)NC(=O)[C@H](CC(=O)O)NC(=O)[C@H](CCSC)NC(=O)[C@H](C)NC(=O)[C@@H](NC(=O)[C@H](CO)NC(=O)[C@H](Cc1ccc(O)cc1)NC(=O)[C@H](CC(=O)O)NC(=O)[C@H](CO)NC(=O)C1(NC(C)=O)CCCCC1)[C@@H](C)CC)[C@@H](C)CC)C(C)C)C(=O)N[C@@H](CC(=O)O)C(=O)N[C@@H](Cc1c[nH]c2ccccc12)C(=O)N[C@@H](CCCCN)C(=O)N[C@@H](Cc1c[nH]cn1)C(=O)N[C@@H](CC(N)=O)C(=O)N[C@H](C(=O)N[C@H](C(=O)N[C@@H](CCC(N)=O)C(=O)O)[C@@H](C)O)[C@@H](C)CC` [Example 19, [Ac-A6c^7, Orn^34(N-C(O)-(CH2)8-CH3)]hGIP(7-42)-OH] (Ac-[Ac6c]SDYSIAMDKIHQQDFVNWLLAQKGKK[Orn](Decanoyl)DWKHNITQ-OH), the values for the half-life at 0.1 mg/ml in data set [1] and in data set [2] were 18.9 h and 10.7 h, respectively.

For `CCCCCCCCCC(=O)NCCC[C@H](NC(=O)[C@H](CCCCN)NC(=O)[C@H](CCCCN)NC(=O)CNC(=O)[C@H](CCCCN)NC(=O)[C@H](CCC(N)=O)NC(=O)[C@H](C)NC(=O)[C@H](CC(C)C)NC(=O)[C@H](CC(C)C)NC(=O)[C@H](Cc1c[nH]c2ccccc12)NC(=O)[C@H](CC(N)=O)NC(=O)[C@@H](NC(=O)[C@H](Cc1ccccc1)NC(=O)[C@H](CC(=O)O)NC(=O)[C@H](CCC(N)=O)NC(=O)[C@H](CCC(N)=O)NC(=O)[C@H](Cc1c[nH]cn1)NC(=O)[C@@H](NC(=O)[C@H](CCCCN)NC(=O)[C@H](CC(=O)O)NC(=O)[C@H](CCSC)NC(=O)[C@H](C)NC(=O)[C@@H](NC(=O)[C@H](CO)NC(=O)[C@H](Cc1ccc(O)cc1)NC(=O)[C@H](CC(=O)O)NC(=O)[C@H](CO)NC(=O)C1(N)CCCCC1)[C@@H](C)CC)[C@@H](C)CC)C(C)C)C(=O)N[C@@H](CC(=O)O)C(=O)N[C@@H](Cc1c[nH]c2ccccc12)C(=O)N[C@@H](CCCCN)C(=O)N[C@@H](Cc1c[nH]cn1)C(=O)N[C@@H](CC(N)=O)C(=O)N[C@H](C(=O)N[C@H](C(=O)N[C@@H](CCC(N)=O)C(=O)O)[C@@H](C)O)[C@@H](C)CC` [Example 20, [A6c^7, Orn^34(N-C(O)-(CH2)8-CH3)]hGIP(7-42)-OH] (H-[Ac6c]SDYSIAMDKIHQQDFVNWLLAQKGKK[Orn](Decanoyl)DWKHNITQ-OH), the half-life at 0.1 mg/mL is 9.4 h in data set [1] and 13.9 h in data set [2].

For the molecule `CCCCCCN1C(=O)CC(SC[C@H](NC(=O)[C@H](CCCCN)NC(=O)[C@H](CCC(N)=O)NC(=O)[C@H](C)NC(=O)[C@H](CC(C)C)NC(=O)[C@H](CC(C)C)NC(=O)[C@H](Cc2c[nH]c3ccccc23)NC(=O)[C@H](CC(N)=O)NC(=O)[C@@H](NC(=O)[C@H](Cc2ccccc2)NC(=O)[C@H](CC(=O)O)NC(=O)[C@H](CCC(N)=O)NC(=O)[C@H](CCC(N)=O)NC(=O)[C@H](Cc2c[nH]cn2)NC(=O)[C@@H](NC(=O)[C@H](CCCCN)NC(=O)[C@H](CC(=O)O)NC(=O)[C@H](CCSC)NC(=O)[C@H](C)NC(=O)[C@@H](NC(=O)[C@H](CO)NC(=O)[C@H](Cc2ccc(O)cc2)NC(=O)[C@H](CC(=O)O)NC(=O)[C@H](CO)NC(=O)C2(NC(C)=O)CCCCC2)[C@@H](C)CC)[C@@H](C)CC)C(C)C)C(=O)N[C@@H](CCCCN)C(=O)N[C@@H](CCCCN)C(=O)N[C@@H](CC(N)=O)C(=O)N[C@@H](CC(=O)O)C(=O)N[C@@H](Cc2c[nH]c3ccccc23)C(=O)N[C@@H](CCCCN)C(=O)N[C@@H](Cc2c[nH]cn2)C(=O)N[C@@H](CC(N)=O)C(=O)N[C@H](C(=O)N[C@H](C(=O)N[C@@H](CCC(N)=O)C(=O)O)[C@@H](C)O)[C@@H](C)CC)C1=O` (stereo partly drawn) [Example 22, [Ac-A6c^7, Cys(Hsu)^31]hGIP(7-42)-OH] (Ac-[Ac6c]SDYSIAMDKIHQQDFVNWLLAQKC(X2)KKNDWKHNITQ-OH), the results for the half-life at 0.1 mg/ml in data set [1] and in data set [2] were 7.7 h and 5 h, respectively.

`CCCCCCN1C(=O)CC(SC[C@H](NC(=O)[C@H](CCCCN)NC(=O)[C@H](CCC(N)=O)NC(=O)[C@H](C)NC(=O)[C@H](CC(C)C)NC(=O)[C@H](CC(C)C)NC(=O)[C@H](Cc2c[nH]c3ccccc23)NC(=O)[C@H](CC(N)=O)NC(=O)[C@@H](NC(=O)[C@H](Cc2ccccc2)NC(=O)[C@H](CC(=O)O)NC(=O)[C@H](CCC(N)=O)NC(=O)[C@H](CCC(N)=O)NC(=O)[C@H](Cc2c[nH]cn2)NC(=O)[C@@H](NC(=O)[C@H](CCCCN)NC(=O)[C@H](CC(=O)O)NC(=O)[C@H](CCSC)NC(=O)[C@H](C)NC(=O)[C@@H](NC(=O)[C@H](CO)NC(=O)[C@H](Cc2ccc(O)cc2)NC(=O)[C@H](CC(=O)O)NC(=O)[C@H](CO)NC(=O)C2(N)CCCCC2)[C@@H](C)CC)[C@@H](C)CC)C(C)C)C(=O)N[C@@H](CCCCN)C(=O)N[C@@H](CCCCN)C(=O)N[C@@H](CC(N)=O)C(=O)N[C@@H](CC(=O)O)C(=O)N[C@@H](Cc2c[nH]c3ccccc23)C(=O)N[C@@H](CCCCN)C(=O)N[C@@H](Cc2c[nH]cn2)C(=O)N[C@@H](CC(N)=O)C(=O)N[C@H](C(=O)N[C@H](C(=O)N[C@@H](CCC(N)=O)C(=O)O)[C@@H](C)O)[C@@H](C)CC)C1=O` (stereo partly drawn) [Example 23, [A6c^7, Cys(Hsu)^31]hGIP(7-42)-OH] (H-[Ac6c]SDYSIAMDKIHQQDFVNWLLAQKC(X2)KKNDWKHNITQ-OH): the half-life at 0.1 mg/mL in data set [1] is 11.7 h; in data set [2] it was 5.3 h.
